Test results published in article PMC7278695, “Dual SMO/BRAF Inhibition by Flavonolignans from Silybum marianum” (Antioxidants, 2020).

Experiments:
BRAF V600E kinase = target: T1, BRAF V600E kinase (Homo sapiens, UniProt P15056, V600E); test: BRAF (V600E) Kinase Assay Kit, Kinase-Glo luminescence; type: biochemical; settings: 45 min at 30 °C
T1 construct: purchased BPS Bioscience #48688
Description: The activities of silybins and dehydrosilybins were tested using a commercial BRAF (V600E) (serine/threonine-protein kinase B-raf, V600E mutant) Kinase Assay Kit (#48688, BPS Bioscience, San Diego, CA, USA). Briefly, the BRAF (V600E) enzyme was incubated for 45 min at 30 °C with five different concentrations of each tested compound in logarithmic dilutions (1000, 100, 10, 1, and 0.1 µM). The reaction mixture was prepared following the instructions of the producer. The luminescence of the product of the enzyme activity was measured with the Kinase-Glo MAX Kit (#V6071, Promega, Madison, WI, USA) at a microplate luminometer (Synergy Multi-Mode Reader, BioTek, Winooski, VT, USA). Higher luminescent signal corresponded to […] enzyme activity. […] The reaction mixture without the test inhibitor represented the positive control, whereas the mixture without the test inhibitor and without the enzyme was used as blank.
The experiments for evaluation of the BRAF inhibition and cytotoxicity were performed in triplicate. The IC50 values were calculated by the BfROpenLab’s non-linear regression nodes in the KNIME analytics platform with the constant slope model.

[1] = tested on: A-375 skin melanoma malignant cells with BRAF V600E mutation; test: MTT cytotoxicity assay, A-375; type: cell-based; settings: Homo sapiens, 72 h, read-out: IC50 (95% Confidence Interval), A-375
Description: (§1) The cytotoxic activity of the tested compounds was evaluated on non-tumorigenic human keratinocytes (HaCaT, #300493), skin melanoma malignant cells with BRAF V600E mutation (A-375, #300110), and skin epidermoid carcinoma cells (A-431, #300112), all purchased from CLS Cell Lines Service (Eppelheim, Germany). The cell lines were maintained in DMEM (#DMEM-HPA, Capricorn®, Ebsdorfergrund, Germany) supplemented with 10% fetal bovine serum (#FBS-HI-12A, Capricorn®, Ebsdorfergrund, Germany) and 4 mM L-glutamine (#G7513, Merck (Sigma-Aldrich), Germany) and incubated under standard conditions (5% CO2, 37 °C, 90%-95% humidity). The experiments were performed between passages 4 and 15 whereby the cells were sub-cultured every 4th day by splitting 1:8, according to the protocol of the biobank. Briefly, the cell cultures were rinsed with PBS without calcium and magnesium (PBS, #D8537, Merck (Sigma-Aldrich), Germany) and incubated for 8-10 min with accutase (#ACC-1B, Capricorn®, Ebsdorfergrund, Germany) as a detachment agent. After centrifugation, the cells were counted with trypan blue (0.4% solution, #T8154, Merck (Sigma-Aldrich), Germany). The antiproliferative effects of SilA, SilB, […], and DHSilB were tested using the MTT-dye (3-(4,5-dimethylthiazol-2-yl)-2,5-diphenyltetrazolium bromide) assay according to ISO 10993-5-2009, Annex C [26]. Briefly, the cells were seeded in 96-well plates at a density of 0.1 × 10^6/mL, incubated for 24 h at 37 °C (5% CO2), and treated with ten concentrations of the compounds ranging from 3.9 to 1000 μM in twofold serial dilutions. After 72 h, the MTT-dye (#M5655-1G, Merck (Sigma-Aldrich), Germany) was added to each sample at a final concentration of 0.05 mg/mL and the plates were incubated for 2 h at 37 °C (5% CO2). The supernatant was aspirated, and the formazan crystals formed as a product of the enzymatic MTT reduction were dissolved in 2-propranol (#33539, Merck (Sigma-Aldrich), Germany) supplemented with 5% formic acid (#300415, […]/Neuber, Sofia, Bulgaria). The absorbance of the product was measured at 550 nm (reference filter 690 nm) on an ELISA Reader BioTek ELx800 (BioTek). The experiments for evaluation of the BRAF inhibition and cytotoxicity were performed in triplicate. The IC50 values were calculated by the BfROpenLab's non-linear regression nodes in the KNIME analytics platform with the constant slope model.

[2] = tested on: A-431 skin epidermoid carcinoma cells; test: MTT cytotoxicity assay, A-431; type: cell-based; settings: Homo sapiens, 72 h, read-out: IC50 (95% Confidence Interval), A-431
Description: as §1

[3] = tested on: HaCaT non-tumorigenic human keratinocytes; test: MTT cytotoxicity assay, HaCaT; type: cell-based; settings: 72 h, read-out: IC50 (95% Confidence Interval), HaCaT
Description: as §1

[4] = tested on: Hedgehog signaling pathway in NIH3T3 Shh-Light II cells; test: HH-dependent (Gli-responsive) luciferase reporter assay; type: cell-based; settings: SAG 200 nM, 48 h; for HH inhibitory activity (in words): maximum concentration of 30 μM
Description: The luciferase assay was carried out in NIH3T3 Shh-Light II cells, stably incorporating a Gli-responsive luciferase reporter and the pRL-TK Renilla, treated with SAG (SMO Agonist, 200 nM, Alexis Biochemicals Farmingdale, NY, USA) and the selected compounds for 48 h. Luciferases activities from P. pyralisand and R. reniformis were assayed with a dual-luciferase assay system, according to the manufacturer’s instructions (Biotium Inc., Hayward, CA, USA). The results were expressed as a P. pyralisand/R. reniformis luciferase ratio and represent the mean ± S.D. of three experiments, each performed in triplicate.
With respect to the SMO receptor, the HH inhibitory activity of the compounds, alone and in a racemate, was investigated in a luciferase reporter assay, which is widely used for characterizing HH inhibitors. The HH inhibitory activity of synthesized molecules was evaluated in NIH3T3 Shh Light II cells, stably incorporating a Gli-responsive firefly luciferase treated with the synthetic SMO agonist SAG [32], alone and in combination with the tested compounds.

[5] = target: T2, Human Myc-DDK-tagged SMO in HEK293T cells (Homo sapiens, UniProt Q99835); test: BODIPY-Cyclopamine binding (displacement) assay; settings: BC 5 nM, 2 h at 37 °C
T2 construct: Myc; DDK (FLAG); expressed in transfected cells; host or cells: HEK293T
Description: Human Myc-DDK-tagged SMO or empty vector was transfected in HEK293T cells. Cells were washed in phosphate-buffered saline (PBS) supplemented with 0.5% fetal bovine serum, fixed in 4% paraformaldehyde in PBS for 10 min, and incubated for 2 h at 37 °C, both in the same medium supplemented with BODIPY-Cyclopamine (BioVision Inc., San Francisco, CA, USA) (BC, 5 nM) and the studied compounds. The cells were permeabilized with Triton X100 (Sigma-Aldrich, St. Louis, MO, USA) 0.2%, and Hoechst reagent was used for cell nuclei staining. Data were expressed as a percentage of BC incorporation observed with BC alone.
To further investigate the binding properties of the selected compounds to the SMO receptor, we performed a displacement assay based on the use of BODIPY-Cyclopamine, which is known to interact with the binding site of SMO antagonists located within the heptahelical bundle of the receptor. To this aim, HEK293T cells were transiently transfected for expression of SMO and then incubated with BC in the presence or absence of increased amounts of DHSilA or DHSilAB.

T1 sequence (P15056 whole entry V600E): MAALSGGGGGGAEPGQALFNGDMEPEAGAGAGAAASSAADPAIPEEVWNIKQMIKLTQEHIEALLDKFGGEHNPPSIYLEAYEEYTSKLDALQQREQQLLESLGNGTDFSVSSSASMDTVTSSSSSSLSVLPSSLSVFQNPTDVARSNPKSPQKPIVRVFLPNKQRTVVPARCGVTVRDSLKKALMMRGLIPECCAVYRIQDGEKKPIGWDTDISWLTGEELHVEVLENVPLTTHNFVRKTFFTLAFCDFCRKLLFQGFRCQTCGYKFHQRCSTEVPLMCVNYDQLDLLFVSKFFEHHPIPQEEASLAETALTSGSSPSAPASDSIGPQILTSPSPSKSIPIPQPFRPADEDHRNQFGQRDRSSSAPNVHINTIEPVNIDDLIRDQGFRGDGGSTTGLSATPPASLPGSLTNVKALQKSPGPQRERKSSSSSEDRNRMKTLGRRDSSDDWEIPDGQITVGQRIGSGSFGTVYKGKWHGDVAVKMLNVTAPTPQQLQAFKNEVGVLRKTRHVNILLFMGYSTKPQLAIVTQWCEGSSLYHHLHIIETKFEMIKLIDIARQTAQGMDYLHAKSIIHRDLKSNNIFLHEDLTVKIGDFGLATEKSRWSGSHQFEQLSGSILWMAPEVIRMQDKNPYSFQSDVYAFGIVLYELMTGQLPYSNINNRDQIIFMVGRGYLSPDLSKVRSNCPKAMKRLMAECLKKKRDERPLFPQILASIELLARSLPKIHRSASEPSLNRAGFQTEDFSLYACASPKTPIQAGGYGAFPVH
T2 sequence (Q99835 28-787): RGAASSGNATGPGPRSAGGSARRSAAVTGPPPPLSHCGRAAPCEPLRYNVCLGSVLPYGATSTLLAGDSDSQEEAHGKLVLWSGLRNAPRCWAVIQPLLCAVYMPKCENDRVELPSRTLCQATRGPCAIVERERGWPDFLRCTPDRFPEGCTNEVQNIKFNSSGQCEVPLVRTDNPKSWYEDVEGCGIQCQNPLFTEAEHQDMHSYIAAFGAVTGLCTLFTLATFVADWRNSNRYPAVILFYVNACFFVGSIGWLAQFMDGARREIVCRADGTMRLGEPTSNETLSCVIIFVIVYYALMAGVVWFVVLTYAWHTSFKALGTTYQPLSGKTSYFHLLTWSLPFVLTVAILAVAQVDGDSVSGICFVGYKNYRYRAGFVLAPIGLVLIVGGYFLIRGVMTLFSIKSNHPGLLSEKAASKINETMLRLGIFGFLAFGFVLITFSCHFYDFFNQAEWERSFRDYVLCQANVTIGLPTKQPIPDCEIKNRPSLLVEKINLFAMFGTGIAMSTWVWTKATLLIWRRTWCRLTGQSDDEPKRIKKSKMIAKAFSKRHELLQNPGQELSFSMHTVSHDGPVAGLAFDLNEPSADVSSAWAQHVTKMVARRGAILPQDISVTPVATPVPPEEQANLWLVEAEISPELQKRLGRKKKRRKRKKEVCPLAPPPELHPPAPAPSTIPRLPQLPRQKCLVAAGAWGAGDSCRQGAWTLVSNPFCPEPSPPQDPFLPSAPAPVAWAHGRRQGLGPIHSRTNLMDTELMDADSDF

Structure (SMILES)	IC50 (BRAF V600E kinase)	IC50 [1]	IC50 [2]	IC50 [3]	HH inhibitory activity (in words) [4]	IC50 ([4]; read-out: IC50, HH inhibitory activity)	Inhibition of BODIPY-Cyclopamine (BC) binding to cells expressing SMO [5]
COc1cc([C@@H]2Oc3cc([C@H]4Oc5cc(O)cc(O)c5C(=O)[C@@H]4O)ccc3O[C@H]2CO)ccc1O [SilB, silybin B]	73.9 µM	120 µM	166 µM	150 µM	mild activity	–	–
COc1cc([C@H]2Oc3cc([C@H]4Oc5cc(O)cc(O)c5C(=O)[C@@H]4O)ccc3O[C@@H]2CO)ccc1O [SilA, silybin A]	104 µM	97 µM	126 µM	120 µM	mild activity	–	–
COc1cc([C@H]2Oc3cc(-c4oc5cc(O)cc(O)c5c(=O)c4O)ccc3O[C@@H]2CO)ccc1O [DHSilA, 2,3-dehydrosilybin A]	70.6 µM	83 µM	97 µM	231 µM	high activity	5 to 10 µM	inhibited BC binding to cells expressing SMO in a dose-dependent manner
COc1cc([C@@H]2Oc3cc(-c4oc5cc(O)cc(O)c5c(=O)c4O)ccc3O[C@H]2CO)ccc1O [DHSilB, 2,3-dehydrosilybin B]	24.9 µM	86 µM	130 µM	164 µM	inactive	–	–
